Experimental findings from ChEMBL document CHEMBL5360556, “An overview of compound properties, multiparameter optimization, and computational drug design methods for PARP-1 inhibitor drugs” (Eur J Med Chem, 2023) are described below.

A short description of data set [1]: Lipophilicity, logD of compound at pH 7.4. Type of data set: physicochemical. The following applies: buffer.
Data set [2] is described as follows: Lipophilicity, logP of compound. Type of data set: physicochemical. The following applies: octanol/water.
A short description of data set [3]: Dissociation constant, pKa of the compound under acidic condition. Type of data set: physicochemical.
The nature of data set [4]: Dissociation constant, pKa of the compound under basic condition. The class given is physicochemical.
Data set [5] is described as follows: Solubility of the compound. Type of data set: physicochemical.
For data set [6], the target named is Voltage-gated inwardly rectifying potassium channel KCNH2 (Homo sapiens, UniProt Q12809). Kind of data set: Inhibition of hERG. The class given is toxicity.
Sequence of Voltage-gated inwardly rectifying potassium channel KCNH2 (Q12809 whole entry): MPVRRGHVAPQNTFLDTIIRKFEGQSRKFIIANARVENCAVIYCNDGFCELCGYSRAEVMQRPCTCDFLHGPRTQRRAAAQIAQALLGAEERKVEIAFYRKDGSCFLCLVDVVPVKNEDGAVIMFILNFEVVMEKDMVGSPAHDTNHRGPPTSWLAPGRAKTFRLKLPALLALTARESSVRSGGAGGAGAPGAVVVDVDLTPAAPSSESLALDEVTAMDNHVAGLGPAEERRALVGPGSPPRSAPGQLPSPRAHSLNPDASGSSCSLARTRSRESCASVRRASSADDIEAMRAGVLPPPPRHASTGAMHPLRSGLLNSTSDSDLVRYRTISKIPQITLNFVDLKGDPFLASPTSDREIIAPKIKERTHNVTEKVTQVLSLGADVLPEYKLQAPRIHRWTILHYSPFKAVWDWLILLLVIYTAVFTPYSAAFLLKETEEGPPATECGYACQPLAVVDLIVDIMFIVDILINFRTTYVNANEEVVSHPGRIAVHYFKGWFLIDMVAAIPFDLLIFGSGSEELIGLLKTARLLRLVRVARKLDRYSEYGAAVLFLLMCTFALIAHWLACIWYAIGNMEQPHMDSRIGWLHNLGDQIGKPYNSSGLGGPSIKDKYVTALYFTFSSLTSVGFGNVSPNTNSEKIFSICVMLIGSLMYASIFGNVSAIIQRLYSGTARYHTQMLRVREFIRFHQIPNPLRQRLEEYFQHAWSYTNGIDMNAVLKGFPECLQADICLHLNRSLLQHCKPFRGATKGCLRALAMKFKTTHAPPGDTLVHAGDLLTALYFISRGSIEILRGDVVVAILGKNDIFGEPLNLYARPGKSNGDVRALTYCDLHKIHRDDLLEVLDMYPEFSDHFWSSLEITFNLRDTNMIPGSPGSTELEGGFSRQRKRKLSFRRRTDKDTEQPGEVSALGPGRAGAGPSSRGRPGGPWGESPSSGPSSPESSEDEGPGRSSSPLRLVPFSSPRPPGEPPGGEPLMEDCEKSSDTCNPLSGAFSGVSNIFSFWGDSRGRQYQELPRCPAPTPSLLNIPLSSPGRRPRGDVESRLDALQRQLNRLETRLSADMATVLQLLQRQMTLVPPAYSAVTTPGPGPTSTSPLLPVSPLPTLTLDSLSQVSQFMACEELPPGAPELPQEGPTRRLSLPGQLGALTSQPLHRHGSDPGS
The target in data set [7] is T1, Poly [ADP-ribose] polymerase 1 (Homo sapiens, UniProt P09874). Description: Inhibition of PARP1 (unknown origin) incubated for 60 mins by absorbance based analysis.
T1 sequence (P09874 whole entry): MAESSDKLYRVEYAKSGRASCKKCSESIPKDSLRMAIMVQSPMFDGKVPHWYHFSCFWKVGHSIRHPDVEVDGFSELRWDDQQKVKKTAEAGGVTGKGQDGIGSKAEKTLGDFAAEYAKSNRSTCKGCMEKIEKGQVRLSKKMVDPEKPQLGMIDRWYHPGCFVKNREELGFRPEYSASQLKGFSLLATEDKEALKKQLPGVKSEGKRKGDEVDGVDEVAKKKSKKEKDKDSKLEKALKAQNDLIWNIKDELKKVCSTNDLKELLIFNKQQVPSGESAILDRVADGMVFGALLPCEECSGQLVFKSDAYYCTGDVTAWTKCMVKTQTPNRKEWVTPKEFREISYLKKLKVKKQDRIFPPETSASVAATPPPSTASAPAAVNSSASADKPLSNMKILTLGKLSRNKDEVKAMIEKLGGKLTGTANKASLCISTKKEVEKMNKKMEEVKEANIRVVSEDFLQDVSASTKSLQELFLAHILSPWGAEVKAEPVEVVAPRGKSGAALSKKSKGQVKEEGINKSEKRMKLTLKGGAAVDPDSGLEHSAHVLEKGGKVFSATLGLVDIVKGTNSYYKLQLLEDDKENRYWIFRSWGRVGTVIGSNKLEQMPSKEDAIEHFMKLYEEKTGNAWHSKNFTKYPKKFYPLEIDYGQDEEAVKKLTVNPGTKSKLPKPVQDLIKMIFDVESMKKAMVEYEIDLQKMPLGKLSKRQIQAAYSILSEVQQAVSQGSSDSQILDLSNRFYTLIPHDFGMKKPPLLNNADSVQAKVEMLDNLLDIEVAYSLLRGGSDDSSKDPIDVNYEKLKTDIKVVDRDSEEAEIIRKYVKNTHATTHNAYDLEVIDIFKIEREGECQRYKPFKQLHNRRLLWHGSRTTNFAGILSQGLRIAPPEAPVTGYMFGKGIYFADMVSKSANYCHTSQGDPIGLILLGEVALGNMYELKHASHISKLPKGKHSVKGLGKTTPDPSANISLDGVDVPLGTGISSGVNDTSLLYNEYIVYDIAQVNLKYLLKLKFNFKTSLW
Data set [8] has as its target T1, Poly [ADP-ribose] polymerase 1. Kind of data set: Inhibition of PARP1 (unknown origin) incubated for 60 mins by ELISA assay. For orientation: ELISA stands for enzyme-linked immunosorbent assay.
Data set [9] shares this target. Kind of data set: Inhibition of PARP1 CD (unknown origin) by colorimetric assay.
Data set [10] shares this target. Kind of data set: Inhibition of PARP1 (unknown origin) using Streptavidin-HRP as substrate incubated for 1 hr by absorbance based analysis.
Data set [11] has the same target. Description: Inhibition of PARP1 (unknown origin).

One may read the logD as lipophilicity at a set pH, counting ionised and neutral species. Read a high logD as higher lipophilicity. What is called logP is the decadic logarithm of the partition coefficient of the neutral form, usually between octanol and water. Higher therefore signals higher lipophilicity. The term pKa denotes the pH at which an ionisable group is half protonated. As usually defined, the solubility is the dissolved amount per volume that the medium holds. Read a low solubility as a poorly soluble substance. For orientation: IC50 means the concentration that inhibits the measured activity by half.

Values after ≈ are worked out from the molar mass of the structure shown.

Turning to `NC(=O)c1cccc2cn(-c3ccc([C@@H]4CCCNC4)cc3)nc12` [NIRAPARIB], the log distribution coefficient (logD) in [1] is -0.11. The compound further registered a log partition coefficient (logP) in data set [2] of 2.47. In addition, the pKa in data set [3] was 14; in data set [4], 10.1. The same compound came in with a solubility in data set [5] of 700 µg/mL (≈ 2180 µM). Besides, the IC50 in data set [6] stood at 10000 nM.
Turning to `O=C(c1cc(Cc2n[nH]c(=O)c3ccccc23)ccc1F)N1CCN(C(=O)C2CC2)CC1` [OLAPARIB], the pH-dependent lipophilicity (logD) in data set [1] was 1.96. Moreover, the logP in data set [2] came to 1.96. The pKa in data set [3] was found to be 9.96; in [4], 0.9.
The compound `Oc1ccc(C2CNCc3c(O)cccc32)cc1O` (racemic) yielded an IC50 in data set [7] of 240 nM. In other words, the sub-micromolar range.
For the compound `O=C(CSc1nc2sc3c(c2c(=O)[nH]1)CCC3)N(CCO)CCO`, it took 560 nM to reach half-maximal inhibition in data set [8] (IC50).
The compound `CC1=C(NN)SC(NNS(=O)(=O)c2ccc3[nH]c(=O)c(=O)[nH]c3c2)N1C(=O)c1ccccc1` (configuration not stated) came in with an IC50 in data set [9] of 2.31 nM. In other words, the single-digit nanomolar range.
In data set [7], `C[N+]12CCc3cc(O)c(O)cc3C1Cc1cc3c(cc12)OCO3` (configuration not stated) showed a half-inhibitory concentration (IC50) of 960 nM.
Consider `Cn1ncnc1[C@H]1c2n[nH]c(=O)c3cc(F)cc(c23)N[C@@H]1c1ccc(F)cc1` [TALAZOPARIB], for which the pH-dependent lipophilicity (logD) in [1] was 2.11. In data set [2], this compound returned a lipophilicity (logP) of 2.11. Further, the values for the pKa in [3] and in [4] were 9.48 and 1.66, respectively. The same compound came in with a solubility in data set [5] of 17 µg/mL (≈ 44.7 µM).
In [10], `O=C(NN1CCCC1)c1cc(Cc2n[nH]c(=O)c3cccnc23)ccc1F` showed an IC50 of 36.7 nM. This lies in the double-digit nanomolar range.
The compound `CNCc1ccc(-c2[nH]c3cc(F)cc4c3c2CCNC4=O)cc1` [RUCAPARIB] came in with a log distribution coefficient (logD) in data set [1] of 0.55. The same compound showed a logP in data set [2] of 2.45. Besides, the pKa turned out to be 13.2 in data set [3] and 9.32 in data set [4]. Besides, the solubility in data set [5] was determined as 1000 µg/mL (≈ 3090 µM). The compound further gave an IC50 in data set [6] of 23000 nM.
Consider `O=C1CCc2cc(-c3ccccc3F)ccc2C2(CCCCC2)N1`, for which the IC50 in [11] is 19 nM. That is a double-digit nanomolar value.
On to `Cc1cc(O)nn1S(=O)(=O)c1ccc2[nH]c(=O)c(=O)[nH]c2c1`, for which inhibition in [9] was half-maximal at 8.73 nM (IC50).
Turning to `CC1=CSC(NNS(=O)(=O)c2ccc3[nH]c(=O)c(=O)[nH]c3c2)N1C(=O)c1ccccc1` (configuration not stated), the IC50 in data set [9] was 6.35 nM. The IC50 values of the last two compounds are within 1.5-fold of each other.
For the compound `CCN(c1ccccc1)S(=O)(=O)c1ccc(NC(=O)C2CC(=O)c3cc(C)c(C)cc3O2)cc1` (configuration not stated), inhibition in data set [8] was half-maximal at 63000 nM (IC50).
Turning to `C[N+]1(C)CCc2cc(O)c(O)cc2[C@H]1Cc1ccc(O)c(O)c1`, the IC50 in data set [7] was found to be 1600 nM.
As to `CC(=O)C1=C(C)N(C(=O)c2ccccc2)C(NNS(=O)(=O)c2ccc3[nH]c(=O)c(=O)[nH]c3c2)S1` (configuration not stated), the IC50 in data set [9] was found to be 8.25 nM.
